Assay results reported in ChEMBL document CHEMBL1136260, “[18F]FMDAA1106 and [18F]FEDAA1106: two positron-emitter labeled ligands for peripheral benzodiazepine receptor (PBR)” (Bioorg Med Chem Lett, 2003).
pIC50, pKi: −log10 of the molar value.

Key:
[1] = Partition coefficient (logP); type: physicochemical; settings: octanol/water
[2] = target: GABA-A receptor; anion channel; test: In vitro displacement of [11C]Flumazenil from (CBR) central GABA-A benzodiazepine receptor of rat brain
[3] = target: Translocator protein (Rattus norvegicus, UniProt P16257); test: In vitro binding affinity for PBR (peripheral benzodiazepine receptor) in rat brain; type: tissue-based
Translocator protein, sequence (P16257 whole entry, looked up): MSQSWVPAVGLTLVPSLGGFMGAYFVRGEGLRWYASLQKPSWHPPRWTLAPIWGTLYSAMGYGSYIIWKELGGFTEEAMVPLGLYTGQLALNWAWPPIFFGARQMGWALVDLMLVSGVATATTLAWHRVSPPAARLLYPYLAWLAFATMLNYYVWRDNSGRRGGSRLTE

COc1ccc(OCCF)c(CN(C(C)=O)c2cc(F)ccc2Oc2ccccc2)c1
logP [1]: 3.81
pIC50 [2]: < 5.00

CC[C@@H](C)N(C)C(=O)c1cc2ccccc2c(-c2ccccc2Cl)n1 [PK-11195]
pIC50 [2]: < 5.00

COc1ccc(OC)c(CN(C(C)=O)c2cc(F)ccc2Oc2ccccc2)c1
logP [1]: 3.65
pKi [3]: 10.37
pIC50 [2]: < 5.00

COc1ccc(OCF)c(CN(C(C)=O)c2cc(F)ccc2Oc2ccccc2)c1
logP [1]: 3.7
pIC50 [2]: < 5.00
